Columns and labels:
[1] = molecular target: CDK9/cyclin T1 (Homo sapiens) (UniProt O60563+P50750); experiment: Inhibition of human CDK9/CyclinT assessed as residual activity at 10 uM by ADP-Glo assay relative to control; type: protein-complex assay
[2] = molecular target: Cyclin-dependent kinase 5/CDK5 activator 1 (Homo sapiens) (UniProt Q00535+Q15078); experiment: Inhibition of human CDK5/p25 assessed as residual activity at 10 uM by ADP-Glo assay relative to control; type: protein-complex assay
Chain of Cyclin-dependent kinase 5/CDK5 activator 1 (Homo sapiens) (Q00535 whole entry, canonical isoform): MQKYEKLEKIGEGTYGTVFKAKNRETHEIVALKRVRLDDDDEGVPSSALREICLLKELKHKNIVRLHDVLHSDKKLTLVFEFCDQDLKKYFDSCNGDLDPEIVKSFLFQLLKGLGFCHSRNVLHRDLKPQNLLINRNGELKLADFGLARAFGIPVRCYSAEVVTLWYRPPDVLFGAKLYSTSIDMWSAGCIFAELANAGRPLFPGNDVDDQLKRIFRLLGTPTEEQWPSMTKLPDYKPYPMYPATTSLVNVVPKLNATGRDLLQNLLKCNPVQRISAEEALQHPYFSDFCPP
Chain of Cyclin-dependent kinase 5/CDK5 activator 1 (Homo sapiens) (Q15078 99-307 partner limits assumed): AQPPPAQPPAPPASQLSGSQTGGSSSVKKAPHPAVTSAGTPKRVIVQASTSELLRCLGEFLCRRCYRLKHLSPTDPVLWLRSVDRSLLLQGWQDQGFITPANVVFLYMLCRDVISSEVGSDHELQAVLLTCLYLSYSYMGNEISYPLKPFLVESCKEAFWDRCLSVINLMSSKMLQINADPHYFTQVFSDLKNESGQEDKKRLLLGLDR

[3] = molecular target: Casein kinase I isoform epsilon (Homo sapiens) (UniProt P49674); experiment: Inhibition of human CK1epsilon assessed as residual activity at 10 uM by ADP-Glo assay relative to control
Chain of Casein kinase I isoform epsilon (Homo sapiens) (P49674 whole entry, looked up, the tested form may be a part, canonical isoform): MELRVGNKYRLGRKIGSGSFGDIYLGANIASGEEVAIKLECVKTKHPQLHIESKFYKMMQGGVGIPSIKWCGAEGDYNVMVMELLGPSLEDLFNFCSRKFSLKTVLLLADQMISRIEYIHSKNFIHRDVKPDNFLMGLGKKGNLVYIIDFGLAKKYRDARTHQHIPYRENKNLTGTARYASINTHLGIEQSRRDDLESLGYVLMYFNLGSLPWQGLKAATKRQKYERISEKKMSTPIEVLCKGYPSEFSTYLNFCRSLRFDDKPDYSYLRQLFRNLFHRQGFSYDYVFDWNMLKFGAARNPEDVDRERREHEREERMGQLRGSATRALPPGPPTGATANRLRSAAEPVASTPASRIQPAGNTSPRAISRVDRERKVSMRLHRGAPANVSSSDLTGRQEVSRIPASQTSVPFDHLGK

[4] = molecular target: DYRK1A (dual specificity tyrosine-phosphorylation-regulated kinase 1A) (Rattus norvegicus, UniProt Q63470); experiment: Inhibition of rat DYRK1A (1 to 499 residues) assessed as residual activity at 10 uM by ADP-Glo assay relative to control; conditions: rat DYRK1A enzyme (residues 1 to 499), read-out: Activity
[5] = molecular target: T1, Serine/threonine-protein kinase haspin (Homo sapiens) (UniProt Q8TF76); experiment: Inhibition of human HASPIN assessed as residual activity at 10 uM by ADP-Glo assay relative to control
T1 sequence (whole entry): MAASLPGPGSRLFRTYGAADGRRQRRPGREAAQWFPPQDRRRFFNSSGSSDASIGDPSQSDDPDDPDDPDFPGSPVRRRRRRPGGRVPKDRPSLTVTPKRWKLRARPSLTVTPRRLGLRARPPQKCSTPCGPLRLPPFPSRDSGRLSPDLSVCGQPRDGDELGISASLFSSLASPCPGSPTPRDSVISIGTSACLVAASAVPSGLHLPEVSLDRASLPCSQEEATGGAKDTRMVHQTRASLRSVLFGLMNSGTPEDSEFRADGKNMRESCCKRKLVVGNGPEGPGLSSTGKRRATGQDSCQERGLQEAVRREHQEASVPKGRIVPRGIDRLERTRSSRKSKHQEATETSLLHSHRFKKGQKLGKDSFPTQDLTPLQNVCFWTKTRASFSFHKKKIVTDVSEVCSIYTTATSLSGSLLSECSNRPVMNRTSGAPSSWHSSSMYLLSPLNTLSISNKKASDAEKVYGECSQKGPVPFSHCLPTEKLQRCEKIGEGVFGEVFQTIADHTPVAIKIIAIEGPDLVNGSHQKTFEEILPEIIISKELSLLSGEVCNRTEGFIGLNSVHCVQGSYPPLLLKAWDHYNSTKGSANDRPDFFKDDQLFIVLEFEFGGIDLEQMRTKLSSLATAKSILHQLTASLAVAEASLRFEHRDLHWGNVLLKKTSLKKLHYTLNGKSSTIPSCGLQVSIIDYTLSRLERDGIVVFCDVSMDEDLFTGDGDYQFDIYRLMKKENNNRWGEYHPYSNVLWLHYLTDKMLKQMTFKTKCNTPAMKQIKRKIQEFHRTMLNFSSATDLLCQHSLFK

[6] = molecular target: Serine/threonine-protein kinase pim-1 (Homo sapiens) (UniProt P11309); experiment: Inhibition of human PIM1 assessed as residual activity at 10 uM by ADP-Glo assay relative to control
Chain of Serine/threonine-protein kinase pim-1 (Homo sapiens) (P11309 whole entry, looked up): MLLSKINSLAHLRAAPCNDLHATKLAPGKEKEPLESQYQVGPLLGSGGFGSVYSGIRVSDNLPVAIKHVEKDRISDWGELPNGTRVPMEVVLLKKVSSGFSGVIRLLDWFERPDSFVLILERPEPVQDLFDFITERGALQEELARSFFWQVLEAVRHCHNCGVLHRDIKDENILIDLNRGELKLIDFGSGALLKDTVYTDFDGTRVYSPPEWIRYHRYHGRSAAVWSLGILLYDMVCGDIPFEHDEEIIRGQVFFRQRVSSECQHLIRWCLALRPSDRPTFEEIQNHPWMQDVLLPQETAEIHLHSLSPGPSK

[7] = molecular target: Dual specificity protein kinase CLK1 (Mus musculus) (UniProt P22518); experiment: Inhibition of mouse CLK1 assessed as residual activity at 10 uM by ADP-Glo assay relative to control
Chain of Dual specificity protein kinase CLK1 (Mus musculus) (P22518 whole entry, looked up): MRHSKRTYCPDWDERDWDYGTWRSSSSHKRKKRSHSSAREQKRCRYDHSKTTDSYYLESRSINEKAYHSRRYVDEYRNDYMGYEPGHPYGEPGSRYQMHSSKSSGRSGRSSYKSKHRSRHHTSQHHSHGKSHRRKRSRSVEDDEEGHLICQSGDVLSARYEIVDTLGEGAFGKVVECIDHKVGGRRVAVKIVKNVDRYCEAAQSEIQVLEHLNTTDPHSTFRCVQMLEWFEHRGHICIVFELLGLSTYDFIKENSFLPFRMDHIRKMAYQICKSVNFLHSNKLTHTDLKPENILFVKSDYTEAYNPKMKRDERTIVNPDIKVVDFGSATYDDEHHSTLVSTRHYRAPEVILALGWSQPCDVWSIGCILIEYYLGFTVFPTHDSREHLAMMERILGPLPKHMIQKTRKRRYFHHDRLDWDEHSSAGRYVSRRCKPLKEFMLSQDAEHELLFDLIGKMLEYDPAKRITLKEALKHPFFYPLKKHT

[8] = molecular target: Glycogen synthase kinase-3 beta (Homo sapiens) (UniProt P49841); experiment: Inhibition of human GSK3beta assessed as residual activity at 10 uM by ADP-Glo assay relative to control
Chain of Glycogen synthase kinase-3 beta (Homo sapiens) (P49841 whole entry, looked up): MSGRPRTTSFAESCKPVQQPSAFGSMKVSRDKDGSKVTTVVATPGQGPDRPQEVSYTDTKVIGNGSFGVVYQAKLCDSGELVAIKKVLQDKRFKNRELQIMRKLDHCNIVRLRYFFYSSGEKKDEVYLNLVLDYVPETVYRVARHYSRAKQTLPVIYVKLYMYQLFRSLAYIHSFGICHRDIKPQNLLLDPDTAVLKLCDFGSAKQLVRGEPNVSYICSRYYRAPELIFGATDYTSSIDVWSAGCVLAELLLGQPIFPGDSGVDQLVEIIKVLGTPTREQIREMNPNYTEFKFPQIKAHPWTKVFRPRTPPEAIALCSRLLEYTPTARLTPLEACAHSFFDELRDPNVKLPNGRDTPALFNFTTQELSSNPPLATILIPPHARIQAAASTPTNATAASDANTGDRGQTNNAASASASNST

MCF7 = experiment: cells; conditions: Homo sapiens, MCF7, 48 h
NCI-H727 = experiment: cells; conditions: Homo sapiens, NCI-H727, 48 h
Description: Cytotoxicity against human NCI-H727 cells assessed as reduction in cell viability incubated for 48 hrs by Hoechst-33342 staining based cell counting method (Rvb > 25 microM)

MDA-MB-231 = experiment: cells; conditions: Homo sapiens, MDA-MB-231, 48 h
Description: Cytotoxicity against human MDA-MB-231 cells assessed as reduction in cell viability incubated for 48 hrs by Hoechst-33342 staining based cell counting method (Rvb > 25 microM)

Huh-7 = experiment: cells; conditions: Homo sapiens, Huh-7, 48 h
Fibroblast = experiment: cells; conditions: Homo sapiens, 48 h
Description: Cytotoxicity against human Fibroblast cells assessed as reduction in cell viability incubated for 48 hrs by Hoechst-33342 staining based cell counting method (Rvb > 25 microM)

Caco-2 = experiment: cells; conditions: Homo sapiens, Caco-2, 48 h
HCT-116 = experiment: cells; conditions: Homo sapiens, HCT-116, 48 h
Description: Cytotoxicity against human HCT-116 cells assessed as reduction in cell viability incubated for 48 hrs by Hoechst-33342 staining based cell counting method (Rvb > 25 microM)

PC-3 = experiment: cells; conditions: Homo sapiens, PC-3, 48 h
Description: Cytotoxicity against human PC-3 cells assessed as reduction in cell viability incubated for 48 hrs by Hoechst-33342 staining based cell counting method (Rvb > 25 microM)

| Compound | Activity [1] | Activity [2] | Activity [3] | activity at 10 µM [4] | Activity [5] | Activity [6] | Activity [7] | Activity [8] | IC50 (MCF7) | IC50 (NCI-H727) | IC50 (MDA-MB-231) | IC50 (Huh-7) | IC50 (Fibroblast) | IC50 (Caco-2) | IC50 (HCT-116) | IC50 (PC-3) |
| --- | --- | --- | --- | --- | --- | --- | --- | --- | --- | --- | --- | --- | --- | --- | --- | --- |
| COc1ccc(-n2cc(COc3cccc4cnc(Nc5cccc(Cl)c5)nc34)nn2)cc1 | 100% | 100% | 86% | 94% | 100% | 69% | 70% | 47% |  |  |  |  |  |  |  |  |
| Clc1ccc(-n2cc(COc3cccc4cnc(Nc5cccc(Cl)c5)nc34)nn2)cc1 | 95% | 100% | 100% | 99% | 100% | 86% | 85% | 87% | > 25 µM | > 25 µM | > 25 µM | 24 µM | > 25 µM | 24 µM | > 25 µM | > 25 µM |
| CC(=O)O[C@H]1C(=O)[C@@]2(C)[C@H]([C@H](OC(=O)c3ccccc3)[C@]3(O)C[C@H](OC(=O)[C@H](O)[C@@H](NC(=O)c4ccccc4)c4ccccc4)C(C)=C1C3(C)C)[C@]1(OC(C)=O)CO[C@@H]1C[C@@H]2O [PACLITAXEL] |  |  |  |  |  |  |  |  |  | 0.01 µM | 0.03 µM | 0.013 µM | 0.1 µM | 0.014 µM | 0.002 µM | 0.002 µM |
| Clc1cccc(Nc2ncc3cccc(OCc4cn(-c5ccc(Br)cc5)nn4)c3n2)c1 | 81% | 100% | 79% | 95% | 100% | 79% | 56% | 77% | 9 µM | 8 µM | 33 µM | 14 µM | > 25 µM | 11 µM | 17 µM | 18 µM |
| COc1cccc(-n2cc(COc3cccc4cnc(Nc5cccc(Cl)c5)nc34)nn2)c1 | 85% | 94% | 40% | 87% | 100% | 79% | 27% | 47% | 8 µM | > 25 µM | 25 µM | 23 µM | 18 µM | 20 µM | 23 µM | 10 µM |
| COc1ccccc1-n1cc(COc2cccc3cnc(Nc4cccc(Cl)c4)nc23)nn1 | 74% | 94% | 96% | 100% | 100% | 84% | 26% | 61% | 6 µM | > 25 µM | > 25 µM | 7 µM | > 25 µM | > 25 µM | > 25 µM | 8 µM |
| O=[N+]([O-])c1ccc(-n2cc(COc3cccc4cnc(Nc5cccc(Cl)c5)nc34)nn2)cc1 | 63% | 94% | 86% | 100% | 100% | 79% | 26% | 87% |  |  |  |  |  |  |  |  |
